Data taken from patent publication US11254668B2, “Pyrazolo[1,5-A]pyrazin-4-yl and related derivatives” (Pfizer Inc., priority 2017, dated 2022).
pIC50: −log10 of the molar value. Like-named read-outs stand apart in the source and are kept apart here.

Legend:
Format in all cases: biochemical
TYK2 = TYK2 (Homo sapiens (Human), UniProt P29597); experiment: JAK Caliper Enzyme Assay at 1 mM ATP, TYK2
Method in brief: (§1)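 Read-out is Caliper LabChip mobility-shift separation of phosphorylated from unphosphorylated fluorescent peptide after EDTA termination. Each JAK kinase domain (human, recombinant) runs at 1 mM ATP at room temperature, adjusted for 20–30% turnover. Inhibition is normalized to DMSO and positive-control wells and plotted against concentration.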

JAK1 = JAK1 (Homo sapiens (Human), UniProt P23458); experiment: JAK Caliper Enzyme Assay at 1 mM ATP, JAK1
Sequence of JAK1 (P23458 875-1153): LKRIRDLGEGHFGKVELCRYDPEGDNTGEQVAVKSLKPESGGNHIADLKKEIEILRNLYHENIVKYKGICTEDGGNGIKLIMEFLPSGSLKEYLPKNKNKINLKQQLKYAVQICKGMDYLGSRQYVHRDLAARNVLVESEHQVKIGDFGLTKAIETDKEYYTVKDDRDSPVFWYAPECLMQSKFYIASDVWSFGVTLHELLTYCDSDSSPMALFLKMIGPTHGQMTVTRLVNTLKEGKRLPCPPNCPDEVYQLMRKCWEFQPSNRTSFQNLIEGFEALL
Method in brief: (§2)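 Recombinant human kinase domains phosphorylate a fluorescent synthetic peptide at 1 mM ATP, room temperature, with enzyme and time tuned for 20-30% conversion; EDTA-stopped. Product/substrate separated by microfluidic mobility shift; percent effect versus DMSO and positive controls fitted to IC50 (nM).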

JAK2 = JAK2 (Homo sapiens (Human), UniProt O60674); experiment: JAK Caliper Enzyme Assay at 1 mM ATP, JAK2
Sequence of JAK2 (O60674 849-1124): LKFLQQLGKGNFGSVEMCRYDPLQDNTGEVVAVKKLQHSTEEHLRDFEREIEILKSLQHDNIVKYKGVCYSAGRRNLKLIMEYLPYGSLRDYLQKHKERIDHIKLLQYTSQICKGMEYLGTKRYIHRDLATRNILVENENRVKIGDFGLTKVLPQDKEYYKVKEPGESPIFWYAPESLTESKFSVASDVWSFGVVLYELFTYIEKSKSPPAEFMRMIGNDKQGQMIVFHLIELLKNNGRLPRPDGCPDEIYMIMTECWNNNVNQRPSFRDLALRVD
Method in brief: as §1

JAK3 = JAK3 (Homo sapiens (Human), UniProt P52333); experiment: JAK Caliper Enzyme Assay at 1 mM ATP, JAK3
Sequence of JAK3 (P52333 822-1111): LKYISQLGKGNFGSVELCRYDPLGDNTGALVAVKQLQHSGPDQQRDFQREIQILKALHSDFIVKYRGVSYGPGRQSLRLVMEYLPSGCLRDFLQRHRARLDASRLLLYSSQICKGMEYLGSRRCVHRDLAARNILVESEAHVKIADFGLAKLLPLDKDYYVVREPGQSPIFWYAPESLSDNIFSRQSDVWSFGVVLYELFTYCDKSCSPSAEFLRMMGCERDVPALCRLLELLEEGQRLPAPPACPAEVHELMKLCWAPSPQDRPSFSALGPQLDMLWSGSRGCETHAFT
Method in brief: as §2

Sequence of TYK2 (P29597 897-1176): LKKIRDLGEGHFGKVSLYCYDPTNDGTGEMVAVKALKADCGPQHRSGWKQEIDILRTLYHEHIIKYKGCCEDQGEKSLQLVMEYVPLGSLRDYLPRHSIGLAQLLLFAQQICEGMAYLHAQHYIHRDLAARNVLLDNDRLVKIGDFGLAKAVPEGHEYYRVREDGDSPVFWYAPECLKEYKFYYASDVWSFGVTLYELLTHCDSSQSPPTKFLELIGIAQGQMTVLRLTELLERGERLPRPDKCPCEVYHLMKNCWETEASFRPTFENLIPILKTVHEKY

| Structure (SMILES) | pIC50 (TYK2) | pIC50 (JAK1) | pIC50 (JAK2) | pIC50 (JAK3) | pIC50 (TYK2; JAK Caliper enzyme assay) | pIC50 (JAK1; JAK Caliper enzyme assay) | pIC50 (JAK2; JAK Caliper enzyme assay) | pIC50 (JAK3; JAK Caliper enzyme assay) |
| --- | --- | --- | --- | --- | --- | --- | --- | --- |
| N#CC[C@]1(n2ccc(-c3nc(-c4cc5n(n4)CCNC5)cc4ncccc34)n2)C[C@H](C#N)C1 [Example 73, trans-3-(cyanomethyl)-3-{3-[7-(4,5,6,7-tetrahydropyrazolo[1,5-a]pyrazin-2-yl)-1,6-naphthyridin-5-yl]-1H-pyrazol-1-yl}cyclobutanecarbonitrile] | 7.48 | 5.33 | 6.69 | < 5.00 |  |  |  |  |
| CS(=O)(=O)N1CC(CC#N)(n2ncc(-c3cc(-c4cn[nH]c4)cc4ncccc34)n2)C1 [Example 314, [1-(methylsulfonyl)-3-{4-[7-(1H-pyrazol-4-yl)quinolin-5-yl]-2H-1,2,3-triazol-2-yl}azetidin-3-yl]acetonitrile] | 7.49 | 5.94 | 6.41 | < 5.00 |  |  |  |  |
| Cc1nc(-c2cc3ncccc3c(-c3ccn(C4(CC#N)CN(CC(F)(F)F)C4)n3)n2)c[nH]1 [Example 150, [3-{3-[7-(2-methyl-1H-imidazol-4-yl)-1,6-naphthyridin-5-yl]-1H-pyrazol-1-yl}-1-(2,2,2-trifluoroethyl)azetidin-3-yl]acetonitrile] | 6.54 | 5.01 | 5.47 | < 5.00 |  |  |  |  |
| CS(=O)(=O)Nc1ccc(-c2cc(-c3cnn(C4(CC#N)CC(C#N)C4)n3)c3cccnc3c2)nc1 (stereo not drawn) [Example 374, N-[6-(5-{2-[cis-3-cyano-1-(cyanomethyl)cyclobutyl]-2H-1,2,3-triazol-4-yl}quinolin-7-yl)pyridin-3-yl]methanesulfonamide] |  |  |  |  | 8.05 | 7.28 | 7.60 | 5.54 |
| COc1ncccc1-c1cc2ncccc2c(-c2ccn(C3(CC#N)CN(S(C)(=O)=O)C3)n2)n1 [Example 187, [3-{3-[7-(2-methoxypyridin-3-yl)-1,6-naphthyridin-5-yl]-1H-pyrazol-1-yl}-1-(methylsulfonyl)azetidin-3-yl]acetonitrile] | 6.11 | < 5.00 | < 5.00 | < 5.00 |  |  |  |  |
| CS(=O)(=O)N1CC(CC#N)(n2ccc(-c3nc(-c4ccc(O)cc4)cc4ncccc34)n2)C1 [Example 254, [3-{3-[7-(4-hydroxyphenyl)-1,6-naphthyridin-5-yl]-1H-pyrazol-1-yl}-1-(methylsulfonyl)azetidin-3-yl]acetonitrile] | 7.96 | 6.63 | 6.69 | < 5.00 |  |  |  |  |
| N#CC[C@]1(n2ncc(-c3cc(-c4cccnc4N)cc4ncccc34)n2)C[C@H](C#N)C1 [Example 363, trans-3-{4-[7-(2-aminopyridin-3-yl)quinolin-5-yl]-2H-1,2,3-triazol-2-yl}-3-(cyanomethyl)cyclobutanecarbonitrile] | 5.16 | < 5.00 | < 5.00 | < 5.00 |  |  |  |  |
| N#CC[C@]1(n2ncc(-c3cc(-c4cnn(CCO)c4)cc4ncccc34)n2)C[C@H](C#N)C1 [Example 326, trans-3-(cyanomethyl)-3-(4-{7-[1-(2-hydroxyethyl)-1H-pyrazol-4-yl]quinolin-5-yl}-2H-1,2,3-triazol-2-yl)cyclobutanecarbonitrile] | 8.05 | 6.48 | 7.35 | 5.38 |  |  |  |  |
| Cn1ncc(-c2cc(-c3cnn([C@]4(CC#N)C[C@@H](C#N)C4)n3)c3cccnc3c2)c1N [Example 330, trans-3-{4-[7-(5-amino-1-methyl-1H-pyrazol-4-yl)quinolin-5-yl]-2H-1,2,3-triazol-2-yl}-3-(cyanomethyl)cyclobutanecarbonitrile] | 6.84 | 5.11 | 5.79 | < 5.00 |  |  |  |  |
| N#CC[C@]1(n2ncc(-c3cc(-c4ccc(C(N)=O)cc4)cc4ncccc34)n2)C[C@H](C#N)C1 [Example 433, 4-(5-{2-[cis-3-cyano-1-(cyanomethyl)cyclobutyl]-2H-1,2,3-triazol-4-yl}quinolin-7-yl)benzamide] |  |  |  |  | 7.70 | 6.45 | 6.94 | 5.17 |
| N#CCC1CC(CC#N)(n2cc(-c3nc(-c4cn[nH]c4)cc4ncccc34)cn2)C1 (stereo not drawn) [Example 3, 2,2′-(cis-1-{4-[7-(1H-pyrazol-4-yl)-1,6-naphthyridin-5-yl]-1H-pyrazol-1-yl}cyclobutane-1,3-diyl)diacetonitrile] | 7.85 | 7.43 | 7.59 | 5.22 |  |  |  |  |
| N#CCC1(n2cc(-c3nc(-c4cn[nH]c4)cc4ncccc34)cn2)CN(CC(F)(F)F)C1 [Example 1, [3-{4-[7-(1H-pyrazol-4-yl)-1,6-naphthyridin-5-yl]-1H-pyrazol-1-yl}-1-(2,2,2-trifluoroethyl)azetidin-3-yl]acetonitrile] | 7.82 | 7.46 | 7.41 | 5.15 |  |  |  |  |
| N#CCC1(n2ncc(-c3cc(-c4ccc(C(N)=O)cn4)cc4ncccc34)n2)CC(C#N)C1 (stereo not drawn) [Example 351, 6-(5-{2-[trans-3-cyano-1-(cyanomethyl)cyclobutyl]-2H-1,2,3-triazol-4-yl}quinolin-7-yl)pyridine-3-carboxamide] | 6.88 | < 5.00 | 6.16 | < 5.00 |  |  |  |  |
| N#CC[C@]1(n2ncc(-c3cc(-c4cnn5cccnc45)cc4ncccc34)n2)C[C@H](C#N)C1 [Example 420, trans-3-(cyanomethyl)-3-{4-[7-(pyrazolo[1,5-a]pyrimidin-3-yl)quinolin-5-yl]-2H-1,2,3-triazol-2-yl}cyclobutanecarbonitrile] |  |  |  |  | 6.04 | < 5.00 | 5.77 | < 5.00 |
| COc1nc(-c2cc(-c3cnn([C@]4(CC#N)C[C@H](C#N)C4)n3)c3cccnc3c2)cnc1N [Example 407, cis-3-{4-[7-(5-amino-6-methoxypyrazin-2-yl)quinolin-5-yl]-2H-1,2,3-triazol-2-yl}-3-(cyanomethyl)cyclobutanecarbonitrile] |  |  |  |  | 6.59 | 5.92 | 5.99 | < 5.00 |
| N#CC[C@]1(n2ccc(-c3nc(-c4ccc(S(N)(=O)=O)nc4)cc4ncccc34)n2)C[C@H](C#N)C1 [Example 211, 5-(5-{1-[cis-3-cyano-1-(cyanomethyl)cyclobutyl]-1H-pyrazol-3-yl}-1,6-naphthyridin-7-yl)pyridine-2-sulfonamide] | 7.77 | 6.74 | 7.41 | 5.01 |  |  |  |  |
| CS(=O)(=O)N1CC(CC#N)(n2ccc(-c3cc(-c4cc[nH]n4)cc4ncccc34)n2)C1 [Example 283, [1-(methylsulfonyl)-3-{3-[7-(1H-pyrazol-3-yl)quinolin-5-yl]-1H-pyrazol-1-yl}azetidin-3-yl]acetonitrile] | 6.75 | 5.25 | 5.70 | < 5.00 |  |  |  |  |
| N#CCC1(n2ccc(-c3nc(-c4ccnc(N)c4)cc4ncccc34)n2)CN(CC(F)(F)F)C1 [Example 197] | 7.43 | 6.18 | 6.16 | < 5.00 |  |  |  |  |
| CS(=O)(=O)N1CC(CC#N)(n2ccc(-c3nc(-c4cnn(CC5COC5)c4)cc4ncccc34)n2)C1 [Example 132, [1-(methylsulfonyl)-3-(3-{7-[1-(oxetan-3-ylmethyl)-1H-pyrazol-4-yl]-1,6-naphthyridin-5-yl}-1H-pyrazol-1-yl)azetidin-3-yl]acetonitrile] | 7.66 | 6.21 | 7.15 | 5.04 |  |  |  |  |
| CS(=O)(=O)N1CC(CC#N)(n2ncc(-c3cc(-c4ccc5c(c4)C(=O)NC5)cc4ncccc34)n2)C1 [Example 448, [1-(methylsulfonyl)-3-{4-[7-(3-oxo-2,3-dihydro-1H-isoindol-5-yl)quinolin-5-yl]-2H-1,2,3-triazol-2-yl}azetidin-3-yl]acetonitrile] |  |  |  |  | 6.59 | < 5.00 | 5.57 | < 5.00 |
| N#CCC1(n2ncc(-c3cc(-c4ccc(C(N)=O)cc4)cc4ncccc34)n2)CC(C#N)C1 (stereo not drawn) [Example 434, 4-(5-{2-[trans-3-cyano-1-(cyanomethyl)cyclobutyl]-2H-1,2,3-triazol-4-yl}quinolin-7-yl)benzamide] |  |  |  |  | 7.00 | 5.60 | 6.13 | < 5.00 |
| N#CC[C@]1(n2ccc(-c3nc(-c4cccc(O)n4)cc4ncccc34)n2)C[C@H](C#N)C1 [Example 182, trans-3-(cyanomethyl)-3-{3-[7-(6-hydroxypyridin-2-yl)-1,6-naphthyridin-5-yl]-1H-pyrazol-1-yl}cyclobutanecarbonitrile] | 7.28 | 5.69 | 6.65 | < 5.00 |  |  |  |  |
| N#CC[C@]1(n2ncc(-c3cc(-c4cnc(CO)s4)cc4ncccc34)n2)C[C@H](C#N)C1 [Example 342, trans-3-(cyanomethyl)-3-(4-{7-[2-(hydroxymethyl)-1,3-thiazol-5-yl]quinolin-5-yl}-2H-1,2,3-triazol-2-yl)cyclobutanecarbonitrile] | 6.87 | 5.59 | 6.00 | < 5.00 |  |  |  |  |
| N#CC[C@]1(n2ncc(-c3cc(-c4cnc5[nH]ccc5n4)cc4ncccc34)n2)C[C@@H](C#N)C1 [Example 416, cis-3-(cyanomethyl)-3-{4-[7-(5H-pyrrolo[2,3-b]pyrazin-2-yl)quinolin-5-yl]-2H-1,2,3-triazol-2-yl}cyclobutanecarbonitrile] |  |  |  |  | 6.16 | 5.49 | 5.64 | < 5.00 |
| Cc1cc(-c2cc(-c3cnn(C4(CC#N)CN(S(C)(=O)=O)C4)n3)c3cccnc3c2)cnc1N [Example 388, [3-{4-[7-(6-amino-5-methylpyridin-3-yl)quinolin-5-yl]-2H-1,2,3-triazol-2-yl}-1-(methylsulfonyl)azetidin-3-yl]acetonitrile] |  |  |  |  | 5.75 | < 5.00 | 5.16 | < 5.00 |
